Measurements as given in patent US11332472B2, “Substituted piperidines as inhibitors of ubiquitin specific protease 7” (LES LABORATOIRES SERVIER, priority 2017, dated 2022).
Each block holds one compound with its values, some of them ahead of it.

Tests used:
USP7 = biological target: T1, USP7 (Homo sapiens, UniProt Q93009, C315A); assay: Inhibition of USP7 by Fluorescence Intensity (FLINT) readings, Ubiquitin-Rhodamine-110 substrate; format: biochemical; details: 0.25 nM His-His-USP7 (aa208-560, [C315A]); compound 60 minutes at 30° C.; 500 nM Ubiquitin-Rhodamine substrate; 11-point curves
T1 construct: 0.25 nM His-His-USP7 (aa208-560, [C315A]) was incubated with compound; His-His (N)
Summary of the method: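 His-His-USP7 (aa208-560, C315A) at 0.25 nM was preincubated with compound for 60 min at 30 °C in 100 mM Bicine pH 8.0, 0.01% Triton X-100, 1 mM TCEP, 10% DMSO. 500 nM ubiquitin-rhodamine-110 was then added, with fluorescence (Ex 485/Em 535 nm) read every 3 min for 21 min. IC50 came from kinetic-rate inhibition, 11-point curves, 4-parameter fit.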

[1] = test system: MM 1S multiple myeloma tumour cell line; assay: In vitro cytotoxicity, MTT assay, MM1S cells; format: cell-based; details: Homo sapiens, MM1.S, 96 hours exposure
Experimental: The cytotoxicity studies were evaluated by MTT assay and carried out on MM 1S multiple myeloma or Z138 mantle cell lymphoma tumour cell lines. The cells are distributed onto microplates and exposed to the test compounds for 96 hours. The cell viability is then quantified by a colorimetric assay, the Microculture Tetrazolium Assay (Carmichael et. al., Cancer Res. […], 47, 936-942).

T1 sequence (Q93009 208-560 C315A): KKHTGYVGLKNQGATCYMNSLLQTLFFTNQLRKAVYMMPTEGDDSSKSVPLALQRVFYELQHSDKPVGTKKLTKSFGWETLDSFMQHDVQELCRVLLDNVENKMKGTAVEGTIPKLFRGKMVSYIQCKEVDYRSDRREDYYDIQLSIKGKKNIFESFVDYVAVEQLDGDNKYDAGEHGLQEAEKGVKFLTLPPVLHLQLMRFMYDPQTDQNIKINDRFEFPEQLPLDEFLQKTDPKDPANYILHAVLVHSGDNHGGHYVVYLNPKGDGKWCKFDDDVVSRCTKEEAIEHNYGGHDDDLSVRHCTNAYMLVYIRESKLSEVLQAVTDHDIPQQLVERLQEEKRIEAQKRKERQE

SMILES: CN1C(=O)CC[C@@H](C(=O)N2CCC(O)(Cn3cnc4c(ccn4-c4ccccc4)c3=O)CC2)[C@@H]1c1ccccc1 (single isomer, unassigned) [Example 27, 3-[[4-hydroxy-1-[trans-1-methyl-6-oxo-2-phenyl-piperidine-3-carbonyl]-4-piperidyl]methyl]-7-phenyl-pyrrolo[2,3-d]pyrimidin-4-one]
IC50 (USP7): 31.5 nM
IC50 [1]: 46.5 nM

SMILES: COc1ccc(-n2ccc3c(=O)n(CC4(O)CCN(C(=O)[C@@H]5CCCC[C@H]5n5cccc5)CC4)cnc32)cc1 (racemic) [Example 15]
IC50 (USP7): 26.1 nM
IC50 [1]: 8.76 nM

SMILES: O=C([C@@H]1CCCC[C@H]1c1ccccc1)N1CCC(O)(Cn2cnc3c(cnn3-c3ccccc3)c2=O)CC1 (relative stereo) [Example 19, 5-[[4-hydroxy-1-(trans-2-phenylcyclohexanecarbonyl)-4-piperidyl]methyl]-1-phenyl-pyrazolo[3,4-d]pyrimidin-4-one]
IC50 (USP7): 14.3 nM
IC50 [1]: 195 nM

SMILES: O=C([C@@H]1CCCC[C@H]1c1ccccc1)N1CCC(O)(Cn2cnc3c(ccn3-c3ccc(Cl)cc3)c2=O)CC1 (relative stereo) [Example 22, 7-(4-chlorophenyl)-3-[[4-hydroxy-1-(trans-2-phenylcyclohexanecarbonyl)-4-piperidyl]methyl]pyrrolo[2,3-d]pyrimidin-4-one]
IC50 (USP7): 31.6 nM
IC50 [1]: 9.88 nM

SMILES: O=C([C@@H]1CCCC[C@H]1c1ccccc1)N1CCC(O)(Cn2cnc3c(nnn3-c3ccccc3)c2=O)CC1 (relative stereo) [Example 18, 6-[[4-hydroxy-1-(trans-2-phenylcyclohexanecarbonyl)-4-piperidyl]methyl]-3-phenyl-triazolo[4,5-d]pyrimidin-7-one]
IC50 (USP7): 50.6 nM
IC50 [1]: 636 nM

SMILES: O=C([C@@H]1CCCC[C@H]1c1ccccc1)N1CCC(O)(Cn2cnc3c(ccn3-c3ccccc3)c2=O)CC1 (relative stereo) [Example 9, 3-[[4-hydroxy-1-(trans-2-phenylcyclohexanecarbonyl)-4-piperidyl]methyl]-7-phenyl-pyrrolo[2,3-d]pyrimidin-4-one]
IC50 (USP7): 35.9 nM
IC50 [1]: 13.9 nM

SMILES: COc1ccc(-n2ccc3c(=O)n(CC4(O)CCN(C(=O)[C@@H]5CCCO[C@H]5c5ccccc5)CC4)cnc32)cc1 (relative stereo) [Example 24, 3-[[4-hydroxy-1-[trans-2-phenyltetrahydropyran-3-carbonyl]-4-piperidyl]methyl]-7-(4-methoxyphenyl)pyrrolo[2,3-d]pyrimidin-4-one]
IC50 (USP7): 217 nM
IC50 [1]: 146 nM

SMILES: COc1ccc(-n2ccc3c(=O)n(CC4(O)CCN(C(=O)[C@@H]5CCCC[C@H]5n5cccc5)CC4)cnc32)cc1 (single isomer, unassigned) [Example 17, 3-[[4-hydroxy-1-[trans-2-pyrrol-1-ylcyclohexanecarbonyl]-4-piperidyl]methyl]-7-(4-methoxyphenyl)pyrrolo[2,3-d]pyrimidin-4-one]
IC50 (USP7): 33.5 nM
IC50 [1]: 4.21 nM

SMILES: COc1ccc(-n2ccc3c(=O)n(CC4(O)CCN(C(=O)[C@@H]5CC(F)(F)CC[C@H]5c5ccccc5)CC4)cnc32)cc1 (single isomer, unassigned) [Example 30, 3-[[1-[trans-5,5-difluoro-2-phenyl-cyclohexanecarbonyl]-4-hydroxy-4-piperidyl]methyl]-7-(4-methoxyphenyl)pyrrolo[2,3-d]pyrimidin-4-one]
IC50 (USP7): 15.9 nM
IC50 [1]: 10.8 nM

SMILES: O=C([C@@H]1CCCC[C@H]1c1ccccc1)N1CCC(O)(Cn2cnc3c(ccn3-c3ccsc3)c2=O)CC1 (relative stereo) [Example 23, 3-[[4-hydroxy-1-(trans-2-phenylcyclohexanecarbonyl)-4-piperidyl]methyl]-7-(3-thienyl)pyrrolo[2,3-d]pyrimidin-4-one]
IC50 (USP7): 17.2 nM
IC50 [1]: 70.1 nM

SMILES: O=C([C@@H]1CC(F)(F)CC[C@H]1c1ccccc1)N1CCC(O)(Cn2cnc3c(ccn3-c3ccccc3)c2=O)CC1 (single isomer, unassigned) [Example 32, 3-[[1-[trans-5,5-difluoro-2-phenyl-cyclohexanecarbonyl]-4-hydroxy-4-piperidyl]methyl]-7-phenyl-pyrrolo[2,3-d]pyrimidin-4-one]
IC50 (USP7): 35.3 nM
IC50 [1]: 15.8 nM

SMILES: O=C([C@@H]1CCCC[C@H]1c1ccccc1)N1CCC(O)(Cn2cnc3c(ncn3-c3ccccc3)c2=O)CC1 (relative stereo) [Example 20, 1-[[4-hydroxy-1-(trans-2-phenylcyclohexanecarbonyl)-4-piperidyl]methyl]-9-phenyl-purin-6-one]
IC50 (USP7): 29.3 nM
IC50 [1]: 210 nM

SMILES: O=C([C@@H]1CCCC[C@H]1n1cccc1)N1CCC(O)(Cn2cnc3c(ccn3-c3ccccc3)c2=O)CC1 (racemic) [Example 12, 3-[[4-hydroxy-1-[trans-2-pyrrol-1-ylcyclohexanecarbonyl]-4-piperidyl]methyl]-7-phenyl-pyrrolo[2,3-d]pyrimidin-4-one]
IC50 (USP7): 71.1 nM
IC50 [1]: 34.5 nM

Now from value to compound, other results behind:

IC50 (USP7): 124 nM
SMILES: O=C([C@@H]1CCCC[C@H]1c1ccccc1)N1CCC(O)(Cn2cnc3[nH]ccc3c2=O)CC1 (relative stereo) [Example 92, 3-[[4-hydroxy-1-(trans-2-phenylcyclohexanecarbonyl)-4-piperidyl]methyl]-7H-pyrrolo[2,3-d]pyrimidin-4-one]
IC50 [1]: 523 nM

IC50 (USP7): 15.8 nM
SMILES: O=C(Cc1ccc2c(c1)NC(=O)C2)Nc1ccc2ncn(CC3(O)CCN(C(=O)[C@@H]4CCCC[C@H]4c4ccccc4)CC3)c(=O)c2n1 (relative stereo) [Example 102, N-[3-[[4-hydroxy-1-(trans-2-phenylcyclohexanecarbonyl)-4-piperidyl]methyl]-4-oxo-pyrido[3,2-d]pyrimidin-6-yl]-2-(2-oxoindolin-6-yl)acetamide]
IC50 [1]: 5390 nM

IC50 (USP7): 13 nM
SMILES: COc1ccc(-n2ccc3c(=O)n(CC4(O)CCN(C(=O)[C@@H]5CCCC[C@H]5c5ccc(F)cc5)CC4)cnc32)cc1 (single isomer, unassigned) [Example 41, 3-[[1-[trans-2-(4-fluorophenyl)cyclohexanecarbonyl]-4-hydroxy-4-piperidyl]methyl]-7-(4-methoxyphenyl)pyrrolo[2,3-d]pyrimidin-4-one]
IC50 [1]: 7.22 nM

IC50 (USP7): 75.3 nM
SMILES: O=C([C@@H]1CCC(F)(F)C[C@H]1c1ccccc1)N1CCC(O)(Cn2cnc3c(ccn3-c3ccccc3)c2=O)CC1 (single isomer, unassigned) [Example 36, 3-[[1-[trans-4,4-difluoro-2-phenyl-cyclohexanecarbonyl]-4-hydroxy-4-piperidyl]methyl]-7-phenyl-pyrrolo[2,3-d]pyrimidin-4-one]
IC50 [1]: 126 nM

IC50 (USP7): 9.81 nM
SMILES: O=C([C@@H]1CCCC[C@H]1c1ccc(F)cc1)N1CCC(O)(Cn2cnc3c(ccn3-c3ccccc3)c2=O)CC1 (single isomer, unassigned) [Example 43, 3-[[1-[trans-2-(4-fluorophenyl)cyclohexanecarbonyl]-4-hydroxy-4-piperidyl]methyl]-7-phenyl-pyrrolo[2,3-d]pyrimidin-4-one]
IC50 [1]: 32.3 nM

IC50 (USP7): 30.9 nM
SMILES: COc1ccc(-n2ccc3c(=O)n(CC4(O)CCN(C(=O)C5CCC(=O)N(C)C5c5ccccc5)CC4)cnc32)cc1 (single isomer, unassigned) [Example 117, 3-{[4-hydroxy-1-trans-1-methyl-6-oxo-2-phenylpiperidine-3-carbonyl)piperidin-4-yl]methyl}-7-(4-methoxyphenyl)-3,7-dihydro-4H-pyrrolo[2,3-d]pyrimidin-4-one]
IC50 [1]: 26.4 nM

IC50 (USP7): 59.1 nM
SMILES: COc1ccc(-n2ccc3c(=O)n(CC4(O)CCN(C(=O)[C@@H]5CCC(F)(F)C[C@H]5c5ccoc5)CC4)cnc32)cc1 (single isomer, unassigned) [Example 75, 3-[[1-[trans-4,4-difluoro-2-(3-furyl)cyclohexanecarbonyl]-4-hydroxy-4-piperidyl]methyl]-7-(4-methoxyphenyl)pyrrolo[2,3-d]pyrimidin-4-one]
IC50 [1]: 3.29 nM

IC50 (USP7): 113 nM
SMILES: O=C(C1CCCC(O)C1c1ccccc1)N1CCC(O)(Cn2cnc3c(ccn3-c3ccccc3)c2=O)CC1 (single isomer, unassigned) [Example 55, (1S,2S,3R or 1R,2R,3S)-3-[[4-hydroxy-1-[3-hydroxy-2-phenyl-cyclohexanecarbonyl]-4-piperidyl]methyl]-7-phenyl-pyrrolo[2,3-d]pyrimidin-4-one]

IC50 (USP7): 268 nM
SMILES: CC1(C)CC[C@@H](C(=O)N2CCC(O)(Cn3cnc4c(-c5ccccc5)scc4c3=O)CC2)[C@H](c2ccccc2)C1 (single isomer, unassigned) [Example 99, 3-[[1-(trans-4,4-dimethyl-2-phenyl-cyclohexanecarbonyl)-4-hydroxy-4-piperidyl]methyl]-7-phenyl-thieno[3,4-d]pyrimidin-4-one]

IC50 (USP7): 4640 nM
SMILES: COc1ccc(-n2ccc3c(=O)n(CC4(O)CCN(C(=O)[C@@H]5CCC(=O)N(C)[C@H]5c5ccccc5)CC4)cnc32)cc1 (single isomer, unassigned) [Example 118, 3-{[4-hydroxy-1-(trans-1-methyl-6-oxo-2-phenylpiperidine-3-carbonyl)piperidin-4-yl]methyl}-7-(4-methoxyphenyl)-3,7-dihydro-4H-pyrrolo[2,3-d]pyrimidin-4-one]
